{"source": "patent US20120046302A1", "about": "“METHODS OF TREATING CNS DISORDERS” (priority 2008, published 2012)", "key": {"5-HT2C": {"molecular_target": "T1, 5-HT2C (Homo sapiens, UniProt P28335)", "T1 sequence (P28335 33-458)": "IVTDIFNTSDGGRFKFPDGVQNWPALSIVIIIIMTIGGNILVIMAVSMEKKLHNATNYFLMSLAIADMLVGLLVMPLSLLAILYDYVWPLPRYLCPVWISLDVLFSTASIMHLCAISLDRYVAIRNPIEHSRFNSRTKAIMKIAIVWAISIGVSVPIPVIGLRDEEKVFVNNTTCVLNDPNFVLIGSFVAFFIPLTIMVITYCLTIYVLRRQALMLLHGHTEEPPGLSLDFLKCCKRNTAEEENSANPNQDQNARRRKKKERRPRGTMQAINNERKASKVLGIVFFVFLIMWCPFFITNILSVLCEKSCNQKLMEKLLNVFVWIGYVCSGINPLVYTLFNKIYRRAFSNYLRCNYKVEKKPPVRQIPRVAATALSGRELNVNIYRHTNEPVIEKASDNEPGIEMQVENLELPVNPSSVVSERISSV", "conditions": "background; cited from earlier work"}, "histamine H1": {"molecular_target": "histamine H1 (Homo sapiens, UniProt P35367)", "sequence (P35367 whole entry)": "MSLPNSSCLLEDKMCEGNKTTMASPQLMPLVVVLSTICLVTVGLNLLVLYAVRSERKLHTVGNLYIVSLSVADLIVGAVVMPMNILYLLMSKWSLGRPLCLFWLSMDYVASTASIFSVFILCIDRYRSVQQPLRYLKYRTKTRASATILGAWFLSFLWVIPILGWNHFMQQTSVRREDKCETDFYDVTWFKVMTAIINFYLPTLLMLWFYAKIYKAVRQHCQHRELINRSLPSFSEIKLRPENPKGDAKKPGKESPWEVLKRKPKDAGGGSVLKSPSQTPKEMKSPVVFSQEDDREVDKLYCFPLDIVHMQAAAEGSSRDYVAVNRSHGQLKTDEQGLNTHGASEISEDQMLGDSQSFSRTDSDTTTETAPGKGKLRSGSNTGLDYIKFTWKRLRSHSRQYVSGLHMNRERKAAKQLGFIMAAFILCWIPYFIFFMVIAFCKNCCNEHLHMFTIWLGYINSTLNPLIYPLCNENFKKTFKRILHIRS", "conditions": "background; cited from earlier work"}, "[1]": {"tested_on": "adrenergic receptor sites", "conditions": "background; cited from earlier work"}, "NMDA receptor": {"tested_on": "NMDA receptor", "conditions": "noncompetitive NMDA receptor antagonists; background; cited from earlier work"}, "[2]": {"tested_on": "patients with bipolar I disorder experiencing a manic or mixed episode", "assay": "Multicenter, open-label study of memantine hydrochloride in acute treatment of hospitalized patients with bipolar I disorder (Example 1)", "assay_type": "in vivo, human", "conditions": "for MRS Total Score, Change at Day 21 (LOCF), Mean ± SEM / YMRS Total Score, Change at Day 21 (LOCF), Mean ± SEM / MRS Total Score, Change at Day 21 (OC), Mean ± SEM / YMRS Total Score, Change at Day 21 (OC), Mean ± SEM / CGI-I Rating, Day 21, Mean ± SEM / CGI-S Rating, Change at Day 21, Mean ± SEM / MADRS Total Score, Change at Day 21, Mean ± SEM / PANSS Total Score, Change at Day 21, Mean ± SEM / PANSS-EC Score, Change at Day 21, Mean ± SEM: 21 days; for MRS Total Score, Change at Day 21 (LOCF), Mean ± SEM / YMRS Total Score, Change at Day 21 (LOCF), Mean ± SEM / CGI-I Rating, Day 21, Mean ± SEM / CGI-S Rating, Change at Day 21, Mean ± SEM / MADRS Total Score, Change at Day 21, Mean ± SEM / PANSS Total Score, Change at Day 21, Mean ± SEM / PANSS-EC Score, Change at Day 21, Mean ± SEM / MRS Response, % of patients / MRS Response, n of patients / YMRS Response, % of patients / YMRS Response, n of patients: ITT; for MRS Total Score, Change at Day 21 (OC), Mean ± SEM / YMRS Total Score, Change at Day 21 (OC), Mean ± SEM: observed cases; for CGI-I Rating, Day 21, Mean ± SEM / CGI-S Rating, Change at Day 21, Mean ± SEM / MADRS Total Score, Change at Day 21, Mean ± SEM / PANSS Total Score, Change at Day 21, Mean ± SEM / PANSS-EC Score, Change at Day 21, Mean ± SEM / MRS Response, % of patients / MRS Response, n of patients / YMRS Response, % of patients / YMRS Response, n of patients: LOCF; for MRS Response, % of patients / MRS Response, n of patients / YMRS Response, % of patients / YMRS Response, n of patients: Day 21, response = ≧50% reduction in total score from baseline", "text": "The entrance criteria for the patients included: Hospitalized adult inpatients, with bipolar I disorder by DSM-IV-TR criteria • Manic or mixed episode: ≧20 on the Young Mania Rating Scale (YMRS), with and without psychotic features; • Diagnosis based on clinical evaluation and confirmed using the Structured Clinical Interview for DSM Disorders. The following comorbid psychiatric diagnoses were allowed to enroll: Attention deficit hyperactivity disorder [ADHD], conduct disorder, obsessive-compulsive disorder, anxiety disorders, and substance abuse. Additional psychotropic medications were not allowed. Patients were assigned to 21-days of treatment in one of three groups: Group 1, 20 mg memantine hydrochloride per day (range 20-30 mg memantine per day); Group 2, 30 mg memantine hydrochloride per day (range 20-40 mg memantine per day); Group 3, 40 mg memantine hydrochloride per day (range 30-50 mg memantine per day). […] Dose modification was continued to study completion or early termination. Efficacy measures included the Young Mania Rating Scale (YMRS) and the Mania Rating Scale (MRS) (≧50% reduction in total score from baseline). The change from baseline was also assessed using the Positive and Negative Syndrome Scale (PANSS) in patients with psychiatric symptoms, Positive and Negative Syndrome Scale-Excited Component (PANSS-EC), Clinical Global Impression Severity (CGI-S) and Improvement (CGI-I) scores, and the change from baseline in the Montgomery Asberg Depression Rating Scale (MADRS). […] The mean duration of treatment was 16.1 days (Group I), 14.7 days (Group 2) and 17.3 days (Group 3)."}, "[3]": {"tested_on": "ICV ouabain-induced motoric hyperactivity", "conditions": "ouabain treated (ICV) versus sham 53.1±SD 50.0; El-Mallakh et al. 2003; cited from earlier work"}, "[4]": {"conditions": "Group 1: 20 mg per day (range 20-30 mg), n=12"}, "[5]": {"conditions": "Group 1: 20 mg per day (range 20-30 mg), n=6"}, "[6]": {"conditions": "Group 2: 30 mg per day (range 20-40 mg), n=11"}, "[7]": {"conditions": "Group 2: 30 mg per day (range 20-40 mg), n=6"}, "[8]": {"conditions": "Group 3: 40 mg per day (range 30-50 mg), n=10"}, "[9]": {"conditions": "Group 3: 40 mg per day (range 30-50 mg), n=8"}}, "note": "Structures can show the parent of a compound that is named as a salt."}
{"molecule": "CN(C)C(=O)N[C@H]1CC[C@H](CCN2CCN(c3cccc(Cl)c3Cl)CC2)CC1", "note": "[Cariprazine hydrochloride, trans-1-{4-[2-[4-(2,3-dichlorophenyl)-piperazin-1-yl]-ethyl]-cyclohexyl}-3,3-dimethyl-urea hydrochloride]", "values": [{"measurement": "Potency at 5-HT2C receptor site (in words)", "setting": "5-HT2C", "result": "low potency"}, {"measurement": "Potency at histamine H1 receptor site (in words)", "setting": "histamine H1", "result": "low potency"}, {"measurement": "Potency at adrenergic receptor sites (in words)", "setting": "[1]", "result": "low potency"}]}
{"molecule": "CC12CC3CC(C)(C1)CC(N)(C3)C2", "note": "[Memantine, 1-amino-3,5-dimethyl adamantane]", "values": [{"measurement": "Affinity for the NMDA receptor (in words)", "setting": "NMDA receptor", "result": "moderate affinity"}]}
{"molecule": "CC12CC3CC(C)(C1)CC(N)(C3)C2", "note": "[memantine hydrochloride]", "values": [{"measurement": "MRS Total Score, Change at Day 21 (LOCF), Mean ± SEM", "setting": "[2]; [4]", "result": "−9.8 ± 2.2"}, {"measurement": "YMRS Total Score, Change at Day 21 (LOCF), Mean ± SEM", "setting": "[2]; [4]", "result": "−9.5 ± 2.8"}, {"measurement": "MRS Total Score, Change at Day 21 (OC), Mean ± SEM", "setting": "[2]; [5]", "result": "−15.3 ± 1.7"}, {"measurement": "YMRS Total Score, Change at Day 21 (OC), Mean ± SEM", "setting": "[2]; [5]", "result": "−17.0 ± 1.9"}, {"measurement": "CGI-I Rating, Day 21, Mean ± SEM", "setting": "[2]; Group 1: 20 mg per day, n=12", "result": "3.3 ± 0.5"}, {"measurement": "CGI-S Rating, Change at Day 21, Mean ± SEM", "setting": "[2]; Group 1: 20 mg per day, n=12", "result": "−0.8 ± 0.3"}, {"measurement": "MADRS Total Score, Change at Day 21, Mean ± SEM", "setting": "[2]; Group 1: 20 mg per day, n=12", "result": "−3.4 ± 1.8"}, {"measurement": "PANSS Total Score, Change at Day 21, Mean ± SEM", "setting": "[2]; Group 1: 20 mg per day, n=12", "result": "−5.1 ± 3.9"}, {"measurement": "PANSS-EC Score, Change at Day 21, Mean ± SEM", "setting": "[2]; Group 1: 20 mg per day, n=12", "result": "−0.7 ± 1.5"}, {"measurement": "MRS Response, % of patients", "setting": "[2]; Group 1: 20 mg per day, n=12", "result": 50.0, "unit": "%"}, {"measurement": "MRS Response, n of patients", "setting": "[2]; Group 1: 20 mg per day, n=12", "result": 6, "unit": "n"}, {"measurement": "YMRS Response, % of patients", "setting": "[2]; Group 1: 20 mg per day, n=12", "result": 50.0, "unit": "%"}, {"measurement": "YMRS Response, n of patients", "setting": "[2]; Group 1: 20 mg per day, n=12", "result": 6, "unit": "n"}, {"measurement": "MRS Total Score, Change at Day 21 (LOCF), Mean ± SEM", "setting": "[2]; [6]", "result": "−7.4 ± 2.6"}, {"measurement": "YMRS Total Score, Change at Day 21 (LOCF), Mean ± SEM", "setting": "[2]; [6]", "result": "−6.4 ± 3.8"}, {"measurement": "MRS Total Score, Change at Day 21 (OC), Mean ± SEM", "setting": "[2]; [7]", "result": "−13.0 ± 2.1"}, {"measurement": "YMRS Total Score, Change at Day 21 (OC), Mean ± SEM", "setting": "[2]; [7]", "result": "−15.5 ± 1.5"}, {"measurement": "CGI-I Rating, Day 21, Mean ± SEM", "setting": "[2]; Group 2: 30 mg per day, n=11", "result": "3.6 ± 0.5"}, {"measurement": "CGI-S Rating, Change at Day 21, Mean ± SEM", "setting": "[2]; Group 2: 30 mg per day, n=11", "result": "−0.7 ± 0.4"}, {"measurement": "MADRS Total Score, Change at Day 21, Mean ± SEM", "setting": "[2]; Group 2: 30 mg per day, n=11", "result": "0.0 ± 2.7"}, {"measurement": "PANSS Total Score, Change at Day 21, Mean ± SEM", "setting": "[2]; Group 2: 30 mg per day, n=11", "result": "−1.5 ± 5.8"}, {"measurement": "PANSS-EC Score, Change at Day 21, Mean ± SEM", "setting": "[2]; Group 2: 30 mg per day, n=11", "result": "−0.5 ± 1.8"}, {"measurement": "MRS Response, % of patients", "setting": "[2]; Group 2: 30 mg per day, n=11", "result": 27.3, "unit": "%"}, {"measurement": "MRS Response, n of patients", "setting": "[2]; Group 2: 30 mg per day, n=11", "result": 3, "unit": "n"}, {"measurement": "YMRS Response, % of patients", "setting": "[2]; Group 2: 30 mg per day, n=11", "result": 45.5, "unit": "%"}, {"measurement": "YMRS Response, n of patients", "setting": "[2]; Group 2: 30 mg per day, n=11", "result": 5, "unit": "n"}, {"measurement": "MRS Total Score, Change at Day 21 (LOCF), Mean ± SEM", "setting": "[2]; [8]", "result": "−7.2 ± 2.0"}, {"measurement": "YMRS Total Score, Change at Day 21 (LOCF), Mean ± SEM", "setting": "[2]; [8]", "result": "−7.9 ± 2.4"}, {"measurement": "MRS Total Score, Change at Day 21 (OC), Mean ± SEM", "setting": "[2]; [9]", "result": "−9.3 ± 1.8"}, {"measurement": "YMRS Total Score, Change at Day 21 (OC), Mean ± SEM", "setting": "[2]; [9]", "result": "−10 ± 2.3"}, {"measurement": "CGI-I Rating, Day 21, Mean ± SEM", "setting": "[2]; Group 3: 40 mg per day, n=10", "result": "2.9 ± 0.5"}, {"measurement": "CGI-S Rating, Change at Day 21, Mean ± SEM", "setting": "[2]; Group 3: 40 mg per day, n=10", "result": "−0.6 ± 0.3"}, {"measurement": "MADRS Total Score, Change at Day 21, Mean ± SEM", "setting": "[2]; Group 3: 40 mg per day, n=10", "result": "−3.3 ± 1.7"}, {"measurement": "PANSS Total Score, Change at Day 21, Mean ± SEM", "setting": "[2]; Group 3: 40 mg per day, n=10", "result": "−7.7 ± 3.8"}, {"measurement": "PANSS-EC Score, Change at Day 21, Mean ± SEM", "setting": "[2]; Group 3: 40 mg per day, n=10", "result": "−0.7 ± 1.4"}, {"measurement": "MRS Response, % of patients", "setting": "[2]; Group 3: 40 mg per day, n=10", "result": 10.0, "unit": "%"}, {"measurement": "MRS Response, n of patients", "setting": "[2]; Group 3: 40 mg per day, n=10", "result": 1, "unit": "n"}, {"measurement": "YMRS Response, % of patients", "setting": "[2]; Group 3: 40 mg per day, n=10", "result": 30.0, "unit": "%"}, {"measurement": "YMRS Response, n of patients", "setting": "[2]; Group 3: 40 mg per day, n=10", "result": 3, "unit": "n"}, {"measurement": "Effectiveness in the treatment of acute mania associated with bipolar disorder (in words)", "setting": "[2]; overall conclusion of Example 1", "result": "surprisingly effective"}]}
{"molecule": "CC1(C)CC(C)(C)CC(C)(N)C1", "note": "[neramexane, 1-amino-1,3,3,5,5-pentamethylcyclohexane]", "values": [{"measurement": "Affinity for the NMDA receptor (in words)", "setting": "NMDA receptor", "result": "moderate affinity"}]}
{"molecule": "C[C@@H]1O[C@@H](O[C@H]2C[C@@H](O)[C@]3(CO)[C@H]4[C@H](O)C[C@]5(C)[C@@H](C6=CC(=O)OC6)CC[C@]5(O)[C@@H]4CC[C@]3(O)C2)[C@H](O)[C@H](O)[C@H]1O", "note": "[ouabain]", "values": [{"measurement": "Open field exploratory activity", "setting": "[3]", "result": "258.7±316.6", "unit": "squares traversed"}]}
